According to patent US8906928B2, “Substituted pyrazolo-pyrrolo-pyridine-dione compounds” (ArQule, Inc., priority 2009, dated 2014):

What was measured:
Format in all cases: cell-based
[1] = tested on: PC-3; experiment: MTS assay (cell growth inhibition), PC-3; settings: PC-3 cells, 72 hours incubation with test compound; concentration not given
Method in brief: (§1)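 First, seed 3000 cells per well in low-serum (1% FBS) DMEM and culture 18 h. Next, add compounds prepared at 300× in DMSO and diluted 1:40 in DMEM; incubate 72 h. Finally, add MTS/PMS for 4 h and measure absorbance at 492 nm.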

[2] = tested on: NCI-H1299; experiment: MTS assay (cell growth inhibition), NCI-H1299; settings: NCI-H1299 cells, 72 hours incubation with test compound; concentration not given
Method in brief: as §1

[3] = tested on: DLD-1; experiment: MTS assay (cell growth inhibition), DLD-1; settings: DLD-1 cells, 72 hours incubation with test compound; concentration not given
Method in brief: as §1

[4] = tested on: MDA-MB; experiment: MTS assay (cell growth inhibition), MDA-MB; settings: MDA-MB cells, 72 hours incubation with test compound; concentration not given
Method in brief: as §1

[5] = tested on: Kato III; experiment: MTS assay (cell growth inhibition), Kato III; settings: Kato III cells, 72 hours incubation with test compound; concentration not given
Method in brief: as §1

[6] = tested on: PACA-2; experiment: MTS assay (cell growth inhibition), PACA-2; settings: PACA-2 cells, 72 hours incubation with test compound; concentration not given
Method in brief: as §1

SMILES	MTS CELL KILL DATA (% INHIBITION) PC-3 [1]	MTS CELL KILL DATA (% INHIBITION) NCI-H1299 [2]	MTS CELL KILL DATA (% INHIBITION) DLD-1 [3]	MTS CELL KILL DATA (% INHIBITION) MDA-MB [4]	MTS CELL KILL DATA (% INHIBITION) Kato III [5]	MTS CELL KILL DATA (% INHIBITION) PACA-2 [6]
Cc1ccc(CCN2C(=O)c3cnc4[nH]ncc4c3C2=O)cc1 [Example 69, 7-[2-(4-methylphenyl)ethyl]pyrazolo[3,4-b]pyrrolo[3,4-d]pyridine-6,8(3H,7H)-dione]	C (C = <50% INHIBITION)	C (C = <50% INHIBITION)	C (C = <50% INHIBITION)	C (C = <50% INHIBITION)	C (C = <50% INHIBITION)	C (C = <50% INHIBITION)
O=C1c2cnc3[nH]nc(-c4cncnc4)c3c2C(=O)N1CCc1ccccc1 [Example 151, 7-(2-phenylethyl)-1-pyrimidin-5-ylpyrazolo[3,4-b]pyrrolo[3,4-d]pyridine-6,8(3H,7H)-dione]	B (B = 50-79% INHIBITION)	C (C = <50% INHIBITION)	A (A = 80-100% INHIBITION)	C (C = <50% INHIBITION)	A (A = 80-100% INHIBITION)	A (A = 80-100% INHIBITION)
O=C1c2cnc3[nH]ncc3c2C(=O)N1Cc1ccc(F)c(F)c1F [Example 20, 7-(2,3,4-trifluorobenzyl)pyrazolo[3,4-b]pyrrolo[3,4-d]pyrindine-6,8(3H,7H)-dione]	A (A = 80-100% INHIBITION)	C (C = <50% INHIBITION)	C (C = <50% INHIBITION)	A (A = 80-100% INHIBITION)	C (C = <50% INHIBITION)	C (C = <50% INHIBITION)
CC(CCN1C(=O)c2cnc3[nH]ncc3c2C1=O)c1ccccc1 (stereo not drawn) [Example 53, 7-(3-phenylbutyl)pyrazolo[3,4-b]pyrrolo[3,4-d]pyridine-6,8(3H,7H)-dione]	A (A = 80-100% INHIBITION)	C (C = <50% INHIBITION)	C (C = <50% INHIBITION)	A (A = 80-100% INHIBITION)	C (C = <50% INHIBITION)	A (A = 80-100% INHIBITION)
O=C1c2cnc3[nH]ncc3c2C(=O)N1CCCc1cccnc1 [Example 87, 7-(3-pyridin-3-ylpropyl)pyrazolo[3,4-b]pyrrolo[3,4-d]pyridine-6,8(3H,7H)-dione]	C (C = <50% INHIBITION)	C (C = <50% INHIBITION)	C (C = <50% INHIBITION)	C (C = <50% INHIBITION)	C (C = <50% INHIBITION)	C (C = <50% INHIBITION)
CN(C)c1cccc(CN2C(=O)c3cnc4[nH]ncc4c3C2=O)c1 [Example 23]	C (C = <50% INHIBITION)	C (C = <50% INHIBITION)	C (C = <50% INHIBITION)	C (C = <50% INHIBITION)	C (C = <50% INHIBITION)	C (C = <50% INHIBITION)
O=C1c2cnc3[nH]ncc3c2C(=O)N1CCc1ccncc1 [Example 36, 7-(2-pyridin-4-ylethyl)pyrazolo[3,4-b]pyrrolo[3,4-d]pyridine-6,8(3H,7H)-dione]	A (A = 80-100% INHIBITION)	C (C = <50% INHIBITION)	C (C = <50% INHIBITION)	A (A = 80-100% INHIBITION)	C (C = <50% INHIBITION)	B (B = 50-79% INHIBITION)
O=C1c2cnc3[nH]ncc3c2C(=O)N1CCc1c2ccccc2cc2ccccc12 [Example 129, 7-[2-(9-anthryl)ethyl]pyrazolo[3,4-b]pyrrolo[3,4-d]pyridine-6,8(3H,7H)-dione]	A (A = 80-100% INHIBITION)	C (C = <50% INHIBITION)	A (A = 80-100% INHIBITION)	A (A = 80-100% INHIBITION)	C (C = <50% INHIBITION)	C (C = <50% INHIBITION)
